The text below walks through data of patent US20100260716A1, “COMPOUNDS FOR TREATING DEM[…]” (UCB PHARMA GMBH, priority 2007, published 2010).

The subject of experiment [1] is acute EAE induced by MBP/CFA. Put plainly: Acute experimental allergic encephalomyelitis (EAE) rat model. It is filed as in vivo, female Lewis rats. The following applies: days 0-21, vehicle-treated animals onset at day 9, significantly postponed.
Description: EAE is induced in female Lewis rats on day zero of the study by a single inoculum injection of myelin basic protein (MBP) and complete Freund's adjuvant (CFA) containing heat killed Mycobacterium tuberculosis F137 Ra at a concentration of 4 mg/ml (MD Biosciences Ltd, Israel). This MBP/CFA encephalitogenic emulsive inoculum (100 μg MBP+200 μg CFA) is injected at a total dose volume of 100 μl/animal, delivered as 2×50 subcutaneous bilateral injections into the intraplanar paw regions.
Lacosamide is administered by intraperitoneal (i.p.) injection twice daily (b.i.d.) on days 0-21 of the study, in a volume of 10 ml/kg at daily doses of 6, 20 and 60 mg/kg. A vehicle control containing no lacosamide is administered by the same route and at the same frequency.
The duration of the study is 21 days. Careful clinical examinations are carried out and recorded at least once daily in addition to EAE clinical scoring and assessment. […]
Initially, all animals are examined for signs of any neurological responses and symptoms prior to EAE induction (day 0) and thereafter examined on a daily basis through the entire 21-day observation period. To avoid experimental bias, EAE reactions are determined in a blinded fashion, as much as possible, by a staff member unaware of the specific treatment applied. […]
Experiment [2] addresses collapsin response mediator protein 2 (CRMP-2) (Homo sapiens, UniProt Q16555). The following applies: statement quoted from poster, Stoehr et al., November 2006; cited from earlier work.

In the case of `COC[C@@H](NC(C)=O)C(=O)NCc1ccccc1` [lacosamide, (R)-2-acetamido-N-benzyl-3-methoxypropionamide], the “Disease onset (day after EAE induction)” value in experiment [1] (10 mg/kg b.i.d. i.p.) and in experiment [1] (30 mg/kg b.i.d. i.p.) was 12 days each time. For the same compound, the “Effect on CRMP-2 and on the effects of neurotrophic factors on axon growth” value in experiment [2] is “modulates CRMP-2 and as a consequence attenuates the effects of neurotrophic factors on axon growth”.
